Reference: US20200079786A1, “ANALOGS OF […] AS SOLUBLE EPOXIDE HYDROLASE INHIBITORS” (UNIVERSITAT DE BARCELONA, priority 2015, published 2020)
In brackets after ≈: the same amount, converted by molar mass.

Columns and labels:
[1] = Determination of water solubility (nephelometry); format: physicochemical; conditions: aqueous with cosolvent or surfactant or cyclodextrin, kinetic from dmso stock; 5% DMSO: 95% PBS buffer, 37° C., read after 2 and 4 h; read-out: S (solubility)
CYP1A2 = target: T1, CYP1A2 (Homo sapiens, UniProt P05177); test: Inhibition of human cytochrome P450 CYP1A2; format: in vitro ADME; conditions: human cytochrome P450 enzyme
T1 sequence (P05177 1-516): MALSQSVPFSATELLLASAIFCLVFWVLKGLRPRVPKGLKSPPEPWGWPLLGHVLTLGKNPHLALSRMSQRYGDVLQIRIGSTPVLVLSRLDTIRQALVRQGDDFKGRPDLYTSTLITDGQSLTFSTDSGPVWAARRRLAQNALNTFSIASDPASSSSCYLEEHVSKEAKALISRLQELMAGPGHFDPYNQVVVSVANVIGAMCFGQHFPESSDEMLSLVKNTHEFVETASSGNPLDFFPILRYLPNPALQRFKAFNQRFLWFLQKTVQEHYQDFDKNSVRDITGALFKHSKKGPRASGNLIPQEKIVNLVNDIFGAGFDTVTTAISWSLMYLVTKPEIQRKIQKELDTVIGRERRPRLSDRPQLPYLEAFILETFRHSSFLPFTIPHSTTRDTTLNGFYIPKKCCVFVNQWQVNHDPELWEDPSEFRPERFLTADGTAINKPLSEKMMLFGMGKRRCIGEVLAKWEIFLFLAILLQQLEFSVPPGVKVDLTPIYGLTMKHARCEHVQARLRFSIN
From the text: (§1) The epoxidation of arachidonic acid (AA) by selected cytochrome P450 epoxygenases generates epoxyeicosatrienoic acids (EETs). These EETs show anti-inflammatory, antihypertensive, analgesic, angiogenic, and antiatherosclerotic effects in rodents and humans. sEH converts EETs to their corresponding dihydroxyeicosatrienoic acids (DHETs), whereby the biological effects of EETs are diminished, eliminated, or altered. Among the P450 enzymes, it is known that CYP2C19 and CYP1A2 have the highest formation rate of EETs from AA (cf. A. A. El-Sherbeni et al. “Repurposing resveratrol and fluconazole to modulate human cytrochrome P450-mediated arachidonic acid metabolites”, Molecular Pharmaceutics 2016, vol. 13, pp. 1278-1288). For this reason, a highly desirable aspect of any new sEH inhibitor is selectivity in front of CYP2C19 and CYP1A2.

CYP2C19 = CYP2C19 (Homo sapiens, UniProt P33261); test: Inhibition of human cytochrome P450 CYP2C19; format: in vitro ADME; conditions: human cytochrome P450 enzyme
From the text: as §1

[2] = Determination of cytotoxicity in THLE-2 cells (ATP viability); format: cell-based; conditions: human; THLE-2 cells, 72 h exposure, 0-100 μM; read-out: LC50 (μM), cytotoxicity
Description: Cytotoxic effects of assayed compounds were tested using the immortalized human liver cell line THLE-2 (ATCC CRL-2706). Cells were cultured in BEGM medium (Clonetics # CC-4175) containing all the supplements kit except additional EGF and G418. Medium was completed by adding 0.7 μg/mL phosphoethanolamine, 0.5 ng/mL epidermal growth factor, antibiotics (penicillin and streptomycin) and 10% fetal bovine serum (FBS).
Cells were plated in 96-well black microplates at 10,000 cells/well density and were incubated at 37° C. (5% CO2, 95% humidity) for 24 h to allow the cells to adhere and form a monolayer. Test compounds were solubilized in 100% DMSO at a concentration curve way and then diluted with cell culture medium containing 10% DMSO. The final concentrations of the test compounds (1% DMSO) ranged from 0-100 μM in a final volume of 200 μL. Microplates were maintained at 37° C. (5% CO2, 95% humidity) during 3 days. Following this 72 h exposure to test compounds, cell viability in each well was determined by measuring the concentration of cellular adenosine triphosphate (ATP) using the ATP1Step Kit as described by the manufacturer (Perkin-Elmer). In a typical procedure, 50 μL of cell reagent is added to all wells of each test plate followed by incubation for 10 min at room temperature on an orbital shaker. ATP concentration was determined by reading chemical luminescence using the Envision plate reader (PerkinElmer). The percentage of viable cells relative to the non-drug treated controls was determined for each well and LC50 values were calculated as concentrations projected to kill 50% of the cells following a 72 h exposure, an average of minimum two independent replicates.

[3] = Parallel artificial membrane permeation assay for blood-brain barrier (PAMPA-BBB); format: in vitro ADME, porcine; conditions: PBS:EtOH (70:30)
Description: The in vitro permeability (Pe) of the test compounds through lipid extract of porcine brain membrane was determined. Assayed compounds were tested using a mixture of PBS:EtOH (70:30). […] From this equation and taking into account the limits established by Di et al. for BBB permeation, the ranges of permeability were established, as follows.

sEH in AR42j cells = target: T2, sEH in AR42j cells (Rattus norvegicus, UniProt P80299); test: In vitro determination of sEH inhibition activity in AR42j cells (cell-based fluorescent assay); conditions: AR-42J, read-out: % Inhn. ± SE (100 μM), sEH inhibition activity in cell culture
T2 sequence (P80299 1-554): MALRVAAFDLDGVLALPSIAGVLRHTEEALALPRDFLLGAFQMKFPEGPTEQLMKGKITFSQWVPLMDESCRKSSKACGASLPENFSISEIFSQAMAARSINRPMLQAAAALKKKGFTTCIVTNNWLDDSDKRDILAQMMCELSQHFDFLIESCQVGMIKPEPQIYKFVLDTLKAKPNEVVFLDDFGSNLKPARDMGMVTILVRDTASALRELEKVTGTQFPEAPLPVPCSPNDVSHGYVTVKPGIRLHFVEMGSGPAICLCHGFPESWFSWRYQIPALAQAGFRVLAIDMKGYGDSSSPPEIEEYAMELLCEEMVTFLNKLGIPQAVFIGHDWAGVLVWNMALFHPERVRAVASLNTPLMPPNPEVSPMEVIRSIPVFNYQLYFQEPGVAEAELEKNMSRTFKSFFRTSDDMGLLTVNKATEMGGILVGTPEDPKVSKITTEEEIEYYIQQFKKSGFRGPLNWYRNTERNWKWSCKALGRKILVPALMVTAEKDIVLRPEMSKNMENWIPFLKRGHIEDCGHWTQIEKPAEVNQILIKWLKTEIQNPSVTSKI
Description: Solutions Preparation: • Assay buffer 1×: add 10 mL of the CBA-Buffer (10×) to 90 mL of distilled water. • Lysis Buffer: add 50 μL of the CBA Digitonin Solution to 10 mL of Buffer Assay 1×. • Substrate Solution: dilute 10 μL of CBA sEH Substrate with 10 mL of Assay Buffer 1×. • Standards: preparation of 7 concentrations of CBA 6-methoxy-2-naphtalaldehyde from 0 until 2 M with Assay Buffer 1×. • sEH Positive Control: Prepare another stock A (1 μg/ml: 1 μL CBA sEH Positive Control+1 mL Assay Buffer 1×). From the already prepared stock A, prepare 250 μL of sEH (10 ng/mL): 2.5 μL sEH stock A+250 μL Assay Buffer 1×). • sEH Inhibitor AUDA: dilute 10 μL CBA sEH Inhibitor with 500 ml Assay Buffer 1×. • Inhibitors dissolved in DMSO at appropriated concentrations.
Seed cells in a 96-well plate at a density of (2×10^4)-(5×10^4) cells/well in 100 μL of culture medium with or without compounds to be tested. Incubation of the cells in a CO2 incubator at 37° C. for 48 hours. Aspirate the culture medium and add 200 μL of Assay Buffer 1× to each well. Centrifuge the plate at 800 rmp for 5 minutes. Aspirate the supernatant and add 100 μL of Lysis Buffer to each well. Incubate with gentle shaking on an orbital shaker for 30 minutes at room temperature. Centrifuge the plate at 3000 rpm for 20 minutes at 4° C. Transfer 90 μL of the supernatants to the 96-Well Solid Plate (black). Add 10 μL Assay Buffer 1× or 10 μL of the AUDA solution to appropriate wells. For positive control wells, add 100 μL of the 10 ng/mL sEH Positive Control to two wells. Add 200 μL of 6-methoxy-2-Naphthaldehyde Standards to corresponding wells of the black plate. Add 100 μL of the sEH Substrate Solution to each well, except the standards. Incubate the plate at 37° C. for 30 minutes. […] The intensity of fluorescence was used to analyze and calculate inhibition percentages, shown in the Table as average of minimum three independent replicates.

Huh-7 cells = test: Amelioration of palmitate-induced ER stress: ATF3, BiP and CHOP mRNA by real-time PCR; format: cell-based; conditions: palmitate 0.5 mM + inhibitor 1 μM, 48 h; for Level of CHOP mRNA: control (CT) = 100.0, PAL alone 224.5; for Level of BiP mRNA: control (CT) = 100.0, PAL alone 242.9; for Level of ATF3 mRNA: control (CT) = 100.0, PAL alone 585.5
Description: Huh-7 cells were maintained in a humid atmosphere of 5% CO2 at 37° C. in high glucose (25 mM) Dulbecco's modified Eagle's medium supplemented with 10% heat-inactivated fetal bovine serum, 1% of penicillin/streptomycin (10.000 units/mL of penicillin and 10.000 μg/mL of streptomycin) and 1% of amphotericin B (250 μg/mL).
Huh-7 cells were serum-starved overnight prior treatment. […] For RNA extraction, cells were pre-treated with the inhibitors (final concentration 1 μM) for 1 hour before treatment with palmitate (final concentration 0.5 mM) and inhibitors (final concentration 1 μM). For each condition, at least 3 replicates were performed. Following 48 hours of incubation, RNA were extracted as described below.
Total RNA in hepatocytes was harvested by TRIsure (Bioline) according to the manufacturer's instructions. The extracted RNA was dissolved in RNase-free water and concentrations of total RNA were quantified using a NanoDrop 2000c spectrophotometer (Thermo Scientific). First-stranded cDNA was synthesized from 0.5 μg total RNA (Life Technologies). […] The PCR reaction contained 10 ng of reverse-transcribed RNA, 2× IQ™ SYBRGreen Supermix (BioRad, Barcelona, Spain) and 900 nmol/L concentration of each primer. Optical primer amplification efficiency for each primer set was assessed and a dissociation protocol was carried out to assure a single PCR product. PCR assays were performed on a MiniOpticon™ Real-Time PCR system (BioRad). Thermal cycling conditions were as follows: activation of Taq DNA polymerase at 95° C. for 10 min, followed by 40 cycles of amplification at 95° C. for 15 sec and 60° C. for 1 min. The relative levels of specific mRNA were estimated from the value of the threshold cycle (Ct) of the real-time PCR adjusted by that of a housekeeping gene (GAPDH) through the formula […] (ΔCt=Gene of interest Ct-GAPDH Ct). Cf.

Sequence of CYP2C19 (P33261 whole entry): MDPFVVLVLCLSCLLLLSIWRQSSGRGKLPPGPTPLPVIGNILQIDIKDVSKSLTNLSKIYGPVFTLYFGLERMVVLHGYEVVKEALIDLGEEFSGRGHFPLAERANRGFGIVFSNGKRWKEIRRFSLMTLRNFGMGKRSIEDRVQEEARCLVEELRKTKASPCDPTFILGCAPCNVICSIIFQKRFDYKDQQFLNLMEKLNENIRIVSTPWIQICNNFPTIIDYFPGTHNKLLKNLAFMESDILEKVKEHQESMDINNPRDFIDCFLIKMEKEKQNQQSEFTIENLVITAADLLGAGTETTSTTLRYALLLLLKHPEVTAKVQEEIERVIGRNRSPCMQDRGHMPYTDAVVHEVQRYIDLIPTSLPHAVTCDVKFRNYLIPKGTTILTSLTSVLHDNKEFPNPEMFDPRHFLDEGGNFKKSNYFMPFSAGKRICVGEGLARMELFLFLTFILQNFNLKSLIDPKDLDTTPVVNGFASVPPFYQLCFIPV

Structure (SMILES): O=C(Nc1cc(Cl)cc(OC(F)(F)F)c1)NC12CC3CC(CC(C3)O1)C2 [Iu]
- solubility [1]: 45 µM (≈ 17.6 µg/mL)
- inhibition at 1 µM (CYP1A2): ≤ 6%
- inhibition at 1 µM (CYP2C19): ≤ 6%

Structure (SMILES): O=C(Nc1ccc(Cl)c(C(F)(F)F)c1)NC12CC3CC(CC(C3)O1)C2 [Iv, 1-(2-oxaadamantan-1-yl)-3-(4-chloro-3-(trifluoromethyl)phenyl)urea]
- CC50 at 72 h [2]: 45.8 ± 3.8 µM
- solubility [1]: 60 µM (≈ 22.5 µg/mL)
- inhibition at 1 µM (CYP1A2): ≤ 6%
- CNS prediction [3]: CNS+ (Compounds of high BBB permeation (CNS+): Pe (10^6 cm s^−1)>5.181)
- inhibition at 1 µM (CYP2C19): ≤ 6%
- inhibition at 100 µM (sEH in AR42j cells): 51.6 ± 6.6%

Structure (SMILES): O=C(Nc1ccc(F)c(F)c1F)NC1C2CC3CC(C2)CC1C3 (centres unmarked) [Std 2, 1-(Adamantan-2-yl)-3-(2,3,4-trifluorophenyl)urea, reference compound]
- Level of CHOP mRNA (Huh-7 cells): 141.8 ± 23.7^(###)
- Level of BiP mRNA (Huh-7 cells): 135.1 ± 16.2^(###)
- Level of ATF3 mRNA (Huh-7 cells): 225.6 ± 21.2^(###)

Structure (SMILES): O=C(Nc1ccc(F)c(F)c1F)NC12CC3CC(CC(C3)O1)C2 [Ia, 1-(2-oxaadamantan-1-yl)-3-(2,3,4-trifluorophenyl)urea]
- CC50 at 72 h [2]: > 100 µM
- Level of CHOP mRNA (Huh-7 cells): 129.9 ± 37.6^(###)
- Level of BiP mRNA (Huh-7 cells): 129.0 ± 20.5^(###)
- Level of ATF3 mRNA (Huh-7 cells): 191.4 ± 22.6^(###)
- solubility [1]: 77 µM (≈ 25.1 µg/mL)
- inhibition at 1 µM (CYP1A2): ≤ 6%
- CNS prediction [3]: CNS+ (Compounds of high BBB permeation (CNS+): Pe (10^6 cm s^−1)>5.181)
- inhibition at 1 µM (CYP2C19): ≤ 6%
- inhibition at 100 µM (sEH in AR42j cells): 35.8 ± 4.7%

Structure (SMILES): CC(C)S(=O)(=O)N1CCC(NC(=O)NC23CC4CC(CC(C4)O2)C3)CC1 [Io, 1-(2-oxaadamant-1-yl)-3-(1-(isopropylsulfonyl)piperidin-4-yl)urea]
- CC50 at 72 h [2]: > 100 µM
- solubility [1]: > 100 µM
- inhibition at 1 µM (CYP1A2): ≤ 6%
- CNS prediction [3]: CNS− (compounds of low BBB permeation (CNS−): Pe (10^6 cm s^−1)<2.107)
- inhibition at 1 µM (CYP2C19): ≤ 6%
- inhibition at 100 µM (sEH in AR42j cells): 40.9 ± 1.99%

Structure (SMILES): O=C(Nc1ccc(F)c(F)c1F)NC12CC3CC(CC(C3)C1)C2 [Std 1, 1-(Adamantan-1-yl)-3-(2,3,4-trifluorophenyl)urea, reference compound]
- solubility [1]: 66 µM (≈ 21.4 µg/mL)
- inhibition at 100 µM (sEH in AR42j cells): 56.6 ± 11%

Structure (SMILES): O=C(Nc1cccc(S(F)(F)(F)(F)F)c1)NC12CC3CC(CC(C3)O1)C2 [Ix, 1-(2-oxaadamantan-1-yl)-3-(3-(pentafluoro-λ^6-sulfanyl)phenyl)urea]
- solubility [1]: > 100 µM
- inhibition at 1 µM (CYP1A2): ≤ 6%
- inhibition at 1 µM (CYP2C19): ≤ 6%

Structure (SMILES): O=C(NC1CCN(C(=O)c2ccccc2F)CC1)NC12CC3CC(CC(C3)O1)C2 [Is, 1-(2-oxaadamant-1-yl)-3-(1-(2-fluorobenzoyl)piperidin-4-yl)urea]
- CC50 at 72 h [2]: > 100 µM
- solubility [1]: > 100 µM
- inhibition at 1 µM (CYP1A2): ≤ 6%
- CNS prediction [3]: CNS− (compounds of low BBB permeation (CNS−): Pe (10^6 cm s^−1)<2.107)
- inhibition at 1 µM (CYP2C19): ≤ 6%
- inhibition at 100 µM (sEH in AR42j cells): 45.3 ± 3.5%
